Format in all cases: cell-based
The target in one assay is T1, hOX2R (Homo sapiens, UniProt O43614).
T1 sequence (O43614 1-444): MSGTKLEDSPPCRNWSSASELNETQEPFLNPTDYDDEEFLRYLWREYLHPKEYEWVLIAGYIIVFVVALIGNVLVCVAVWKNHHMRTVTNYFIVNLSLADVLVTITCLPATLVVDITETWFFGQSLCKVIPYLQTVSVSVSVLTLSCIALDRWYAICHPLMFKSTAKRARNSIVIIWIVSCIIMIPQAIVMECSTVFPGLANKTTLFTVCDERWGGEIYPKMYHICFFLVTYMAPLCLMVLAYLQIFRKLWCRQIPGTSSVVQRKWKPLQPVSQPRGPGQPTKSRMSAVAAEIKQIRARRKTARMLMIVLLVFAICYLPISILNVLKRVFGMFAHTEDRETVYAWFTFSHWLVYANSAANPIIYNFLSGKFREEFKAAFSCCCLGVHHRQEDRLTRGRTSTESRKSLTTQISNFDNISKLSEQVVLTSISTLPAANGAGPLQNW
Description: Intracellular calcium measurements using division-arrested cells, OX2. Particulars: agonist orexin B at 2×EC50, * = single experiment, otherwise average of at least two, read-out: pIC50 OX2 (converted). How it is done:
(§1) Intracellular Calcium Measurements Using Division-arrested Cells (Table 1):
(§2) Test compounds are prepared as 10 mM stock solutions in DMSO, then serially diluted in half log concentrations with DMSO followed by dilution with assay buffer (HBSS (Sigma-Aldrich, H8264) containing 20 mM HEPES (Sigma-Aldrich, H4034), 0.1% (w/v) bovine serum albumin and adjusted to pH 7.4) to a top final assay concentration of 10 μM.
(§3) Human OX1 (CT-A474) and human OX2 (CT-A475) receptor-expressing division-arrested cells are plated into 384 well black, clear bottom, cell-bind plates at a seeding density of 10,000 cells/50 μL growth media. The seeded plates are incubated at 37° C. in air supplemented with 5% CO2 for 16 hrs.
(§4) The media is removed and replaced with 30 μL/well of cell loading buffer (a vial of Calcium 5 is solubilized in 22 mL of assay buffer to which a freshly prepared 250 mM solution of probenecid in 1:1 1M NaOH to assay buffer (200 μL) is added) and the cells incubated for 1 hr at 37° C. The serially diluted test compounds (10 μL/well) are added to the plate, which is then incubated for 10 mins and placed in a FlexStation III reader.

The target of assay [1] is T2, hOX1R (Homo sapiens, UniProt O43613).
T2 sequence (O43613 1-425): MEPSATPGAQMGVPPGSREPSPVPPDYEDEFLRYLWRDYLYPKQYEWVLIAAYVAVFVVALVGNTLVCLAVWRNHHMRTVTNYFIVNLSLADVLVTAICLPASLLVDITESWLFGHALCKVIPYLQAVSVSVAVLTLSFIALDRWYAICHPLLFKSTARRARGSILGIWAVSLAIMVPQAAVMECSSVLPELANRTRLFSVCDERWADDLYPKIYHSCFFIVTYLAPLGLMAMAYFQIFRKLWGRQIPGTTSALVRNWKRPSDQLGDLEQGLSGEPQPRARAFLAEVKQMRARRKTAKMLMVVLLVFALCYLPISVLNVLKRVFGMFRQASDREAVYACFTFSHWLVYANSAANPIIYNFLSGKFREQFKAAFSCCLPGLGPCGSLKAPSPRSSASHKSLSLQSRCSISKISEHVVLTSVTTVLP
Description: Intracellular calcium measurements using division-arrested cells, OX1. Conditions: agonist orexin A at 2×EC50, * = single experiment, otherwise average of at least two, read-out: pIC50 OX1 (converted). Here is the method:
as §1, §2, §3, §4

Assay [2] addresses T2, hOX1R. In words: Intracellular calcium measurements using stable-replicating cells, Method B (CHO cells, FLIPR Tetra), OX1. Conditions: orexin A at EC75, read-out: pIC50 OX1 (converted). Here is the method:
Intracellular Calcium Measurements Using Stable-replicating Cells:
Human OX1 or human OX2 receptor expressing CHO cells are plated into 384 well black, clear bottom, CellBIND plates at a seeding density of 10,000 cells/75 μL growth media. The seeded plates are incubated at 37° C. in air supplemented with 5% CO2 overnight.
The next day media is removed and replaced with 30 μL/well of cell loading buffer (a vial of Calcium 5 is solubilized in 20 mL of assay buffer) and the cells incubated for 1 hr at 37° C. The serially diluted test compounds (10 μL/well) are added to the cell plate by the FLIPR Tetra and the addition is monitored for 5 mins by the instrument. The cell plate is then removed and incubated for additional 25 mins in a humidified incubator at […] prior to being placed back into the FLIPR Tetra. Finally 10 μL of orexin A in assay buffer +0.1% (w/v) bovine serum albumin is dispensed by the FLIPR Tetra at an EC75 concentration determined for each assay run. Fluorescence is measured at excitation and emission wavelengths of 485 nm and 525 nm respectively and data analyzed using GraphPad Prism for the EC75 value of orexin A and Aplus to determine an IC50 value for each test compound.

The text below walks through data of US10611760B2, “Therapeutic compounds as inhibitors of the orexin-1 receptor” (C4X Discovery Limited, priority 2014, dated 2020).

Structures can show the parent of a compound that is named as a salt.

Regarding `CC[C@@H](CNc1ccc(Cl)cn1)N(C)C(=O)c1cc(N(C)C)ccc1-n1nccn1` [Example 23, (S)—N-(1-((5-chloropyridin-2-yl)amino)butan-2-yl)-5-(dimethylamino)-N-methyl-2-(2H-1,2,3-triazol-2-yl)benzamide], the IC50 was 2510 nM on hOX2R and 25.1 nM on hOX1R [1]. On the same counts, the results for `CC[C@@H](CNc1ccc(Cl)cn1)NC(=O)c1cc(Cl)ccc1-n1nccn1` [Example 25, (S)-5-chloro-N-(1-((5-chloropyridin-2-yl)amino)butan-2-yl)-2-(2H-1,2,3-triazol-2-yl)benzamide] are more than 10000 nM and 631 nM. Turning to `Cc1nc(C(=O)N(C)[C@H](CNc2ccc(Cl)cn2)C(C)C)c(-c2ccccc2)s1` [Example 26, (S)—N-(1-((5-chloropyridin-2-yl)amino)-3-methylbutan-2-yl)-N,2-dimethyl-5-phenylthiazole-4-carboxamide], the IC50 at hOX2R is 2000 nM; on hOX1R [1] it was 31.6 nM. `CC(C)[C@@H](CNc1ccc(Cl)cn1)N(C)C(=O)c1c(-c2ccccc2)[nH]c2ccccc12` [Example 27, (S)—N-(1-((5-chloropyridin-2-yl)amino)-3-methylbutan-2-yl)-N-methyl-2-phenyl-1H-indole-3-carboxamide]: the IC50 at hOX2R was 501 nM; at hOX1R [1], 158 nM. As to `CC(C)[C@@H](CNc1ccc(Cl)cn1)N(C)C(=O)c1ccccc1-n1nccn1` [Example 28, (S)—N-(1-((5-chloropyridin-2-yl)amino)-3-methylbutan-2-yl)-N-methyl-2-(2H-1,2,3-triazol-2-yl)benzamide], the IC50 at hOX2R is more than 10000 nM; on hOX1R [1] it was 200 nM. For `Cc1cc(C)nc(OC[C@H](C(C)C)N(C)C(=O)c2ccccc2-c2ccccc2)n1` [Example 30, (S)—N-(1-((4,6-dimethylpyrimidin-2-yl)oxy)-3-methylbutan-2-yl)-N-methyl-[1,1′-biphenyl]-2-carboxamide], in that order: more than 5010 nM and 1580 nM. With `CC(C)[C@@H](COc1ccc(Cl)cn1)N(C)C(=O)c1ccccc1-c1ccccc1` [Example 34, (S)—N-(1-((5-chloropyridin-2-yl)oxy)-3-methylbutan-2-yl)-N-methyl-[1,1′-biphenyl]-2-carboxamide], the IC50 on hOX2R was more than 3160 nM; on hOX1R [1], 200 nM. On the same counts, the results for `CC(C)[C@@H](CNc1nccc(-c2ccccc2)n1)N(C)C(=O)c1ccccc1-c1ccccc1` [Example 35, (S)—N-methyl-N-(3-methyl-1-((4-phenylpyrimidin-2-yl)amino)butan-2-yl)-[1,1′-biphenyl]-2-carboxamide] are 2000 nM and 79.4 nM. With `CC(C)[C@@H](CNc1nc2ccccc2n1C)N(C)C(=O)c1ccccc1-c1ccccc1` [Example 38, (S)—N-methyl-N-(3-methyl-1-((1-methyl-1H-benzo[d]imidazol-2-yl)amino)butan-2-yl)-[1,1′-biphenyl]-2-carboxamide], the results for the IC50 at hOX2R and at hOX1R [1] were more than 3980 nM and 79.4 nM, respectively. For `CC[C@@H](CNc1cnc(C(F)(F)F)cn1)N(C)C(=O)c1cc(Cl)ccc1-n1nccn1` [Example 40, (S)-5-chloro-N-methyl-2-(2H-1,2,3-triazol-2-yl)-N-(1-((5-(trifluoromethyl)pyrazin-2-yl)amino)butan-2-yl)benzamide], in that order: 2510 nM and 15.8 nM.

As for `CC[C@@H](CNc1ccc(C(F)(F)F)cn1)N(C)C(=O)c1nc(C)ccc1-n1nccn1` [Example 48, (S)—N,6-dimethyl-3-(2H-1,2,3-triazol-2-yl)-N-(1-((5-(trifluoromethyl)pyridin-2-yl)amino)butan-2-yl)picolinamide], the figures for the IC50 at hOX2R and on hOX1R [1] were 2510 nM and 12.6 nM, respectively.

On to `Cc1cc(C(=O)N(C)[C@H](CNc2ccc(Cl)cn2)C(C)C)c2ccccc2n1` [Example 51, (S)—N-(1-((5-chloropyridin-2-yl)amino)-3-methylbutan-2-yl)-N,2-dimethylquinoline-4-carboxamide], for which the IC50 on hOX2R was more than 10000 nM; at hOX1R [1], 631 nM. On the same counts, the results for `CC(C)[C@@H](CNc1ccc(Cl)cn1)N(C)C(=O)c1ccccc1OC(F)(F)F` [Example 52, (S)—N-(1-((5-chloropyridin-2-yl)amino)-3-methylbutan-2-yl)-N-methyl-2-(trifluoromethoxy)benzamide] are more than 7940 nM and 1000 nM. For `CC[C@@H](CNc1ccc(C(F)(F)F)nc1)N(C)C(=O)c1cc(Cl)ccc1-n1nccn1` [Example 54, (S)-5-chloro-N-methyl-2-(2H-1,2,3-triazol-2-yl)-N-(1-((6-(trifluoromethyl)pyridin-3-yl)amino)butan-2-yl)benzamide], in that order: 1260 nM and 20 nM.

In the case of `CC(C)[C@@H](CNC(=O)c1ccc(F)cc1)N(C)C(=O)c1ccccc1-c1ccccc1` [Example 56, (S)—N-(1-(4-fluorobenzamido)-3-methylbutan-2-yl)-N-methyl-[1,1′-biphenyl]-2-carboxamide], the IC50 was more than 3160 nM at hOX2R and 126 nM on hOX1R [1]. For `CC(C)[C@@H](CNC(=O)Nc1ccccc1)N(C)C(=O)c1ccccc1-c1ccccc1` [Example 58, (S)—N-methyl-N-(3-methyl-1-(3-phenylureido)butan-2-yl)-[1,1′-biphenyl]-2-carboxamide], in that order: more than 5010 nM and 126 nM.

As to `CC(C)[C@@H](CNc1ccc(Cl)cc1)N(C)C(=O)c1ccccc1-c1ccccc1` [Example 59, (S)—N-(1-((4-chlorophenyl)amino)-3-methylbutan-2-yl)-N-methyl-[1,1′-biphenyl]-2-carboxamide], the values for the IC50 at hOX2R and on hOX1R [1] were more than 6310 nM and 158 nM, respectively. `Cc1ccc(-n2nccn2)c(C(=O)N(C)[C@H](CNc2cnc(C(F)(F)F)cn2)C(C)C)n1` [Example 67, (S)—N,6-dimethyl-N-(3-methyl-1-((5-(trifluoromethyl)pyrazin-2-yl)amino)butan-2-yl)-3-(2H-1,2,3-triazol-2-yl)picolinamide]: the IC50 at hOX1R [2] was 7.94 nM. Take `CC[C@@H](CNc1cnc(C(F)(F)F)cn1)N(CC)C(=O)c1nc(C)ccc1-n1nccn1` [Example 70, (S)—N-ethyl-6-methyl-3-(2H-1,2,3-triazol-2-yl)-N-(1-((5-(trifluoromethyl)pyrazin-2-yl)amino)butan-2-yl)picolinamide]: the IC50 at hOX1R [2] was 1.58 nM. Still for that read-out and setting: the result for `CC[C@@H](CNc1ncc2ccccc2n1)N(CC)C(=O)c1nc(C)ccc1-n1nccn1` [Example 72, (S)—N-ethyl-6-methyl-N-(1-(quinazolin-2-ylamino)butan-2-yl)-3-(2H-1,2,3-triazol-2-yl)picolinamide] reads 1.58 nM; that for `CC[C@@H](CNc1ncc(C(F)(F)F)cn1)N(C)C(=O)c1nc(C)ccc1-c1ncccn1` [Example 84, (S)—N,6-dimethyl-3-(pyrimidin-2-yl)-N-(1-((5-(trifluoromethyl)pyrimidin-2-yl)amino)butan-2-yl)picolinamide formic acid salt], 2 nM.
